Article PMC10085697 (2023)

Tests used:
[1] = test system: Mango IV (RNA, aptamer) GCACGUACCGAGGGAGUGGUGAGGAUGAGGCGAGUACGUGC; test: fluorescence light-up titration (Monolith NT.115); conditions: 140 mM KCl; 10 mM Tris-HCl pH 7.5, 0.05% Tween-20, 25 °C, 10 nM dye; rough evaluation
[2] = test system: Control G4 RNA (utr-z) (RNA, G4) GGCGGCGGCAGUGGCGGCGG; test: fluorescence light-up; conditions: 140 mM KCl; 10 mM Tris-HCl pH 7.5, 5 μM dye, 5 μM RNA
[3] = test system: Broccoli (RNA, aptamer) GGGAGACGGUCGGGUCCAGAUAUUCGUAUCUGUCGAGUAGAGUGUGGGCUC; test: fluorescence titration; conditions: affinity called insignificant compared to that of Mango II; highest concentration not stated
[4] = test system: ds_Mango II (RNA, aptamer) GGUGUGGGGCACGUACGAAGGAGAGGAGAGGAAGAGGAGAGUACGUGCCCCACA; test: fluorescence light-up; conditions: 140 mM KCl
[5] = test system: Mango II (RNA, aptamer) GCACGUACGAAGGAGAGGAGAGGAAGAGGAGAGUACGUGC; test: fluorescence light-up titration (Monolith NT.115); conditions: 140 mM KCl; 10 mM Tris-HCl pH 7.5, 0.05% Tween-20, 25 °C, 10 nM dye; rough evaluation
[6] = test system: Mango II (RNA, aptamer) GCACGUACGAAGGAGAGGAGAGGAAGAGGAGAGUACGUGC; test: absorbance shift and fluorescence light-up; conditions: 140 mM KCl; 10 mM Tris-HCl pH 7.5, 5 μM dye, 5 μM RNA
[7] = test system: Mango IV (RNA, aptamer) GCACGUACCGAGGGAGUGGUGAGGAUGAGGCGAGUACGUGC; test: absorbance shift and fluorescence light-up; conditions: 140 mM KCl; 10 mM Tris-HCl pH 7.5, 5 μM dye, 5 μM RNA
[8] = test system: Broccoli (RNA, aptamer) GGGAGACGGUCGGGUCCAGAUAUUCGUAUCUGUCGAGUAGAGUGUGGGCUC; test: absorbance and fluorescence titration; conditions: 140 mM KCl; 10 mM Tris-HCl pH 7.5

Row | Structure (SMILES) | binding [2] | binding [6] | binding [7] | further results
1 | O=C(CCCC[C@@H]1SC[C@@H]2NC(=O)N[C@@H]21)NCCOCCOCCOCCn1cc(C[n+]2c(/C=C/c3cc4c5c(c3)CCCN5CCC4)sc3ccccc32)nn1 |  | yes | yes | 
2 | CC1=N/C(=C\c2cc(F)c(O)c(F)c2)C(=O)N1C |  |  |  | binding [8]: yes
3 | CN1C=CC(=Cc2sc3ccccc3[n+]2CC(=O)NCCOCCOCCOCCNC(=O)CCCC[C@@H]2SC[C@@H]3NC(=O)N[C@@H]32)c2ccccc21 | yes | yes | yes | binding ([4]; buffer stated for 4b only): yes
4 | CN1C=CC(=Cc2sc3ccccc3[n+]2Cc2cn(CCOCCOCCOCCNC(=O)CCCC[C@@H]3SC[C@@H]4NC(=O)N[C@@H]43)nn2)c2ccccc21 | yes | yes | yes | 

More lines, main results first:

Row | binding [2] | binding [6] | binding [7] | Structure (SMILES) | further results
5 | weak |  |  | CN(C)c1ccc(/C=C/c2sc3ccccc3[n+]2Cc2cn(CCOCCOCCOCCNC(=O)CCCC[C@@H]3SC[C@@H]4NC(=O)N[C@@H]43)nn2)cc1 | KD [1]: 600 ± 400 nM; binding [3]: no; binding ([4]; 20 mM sodium phosphate pH 7.2, 0.05% Tween-20, 1 μM): yes; KD [5]: 80 ± 60 nM
6 |  | yes | yes | CC1=CC(C)(C)N(C)c2ccc(/C=C/c3sc4ccccc4[n+]3Cc3cn(CCOCCOCCOCCNC(=O)CCCC[C@@H]4SC[C@@H]5NC(=O)N[C@@H]54)nn3)cc21 | 
